Data on two compounds can be found in the NIST ThermoML archive (doi:10.1016/j.fluid.2012.08.023).

± gives the expanded uncertainty stated by the source.

The conditions of this series: Liquid, Closed cell (Static) method.

As usually defined, the vapor or sublimation pressure is the pressure of vapour in equilibrium with the condensed phase. Consider `FC(F)(F)C(F)(F)C(F)(F)C(F)(F)F` [decafluorobutane], for which the “vapor or sublimation pressure” value was determined as 91 ± 12 kPa (268.13 K), 134.6 ± 12 kPa (278.36 K), 192.9 ± 12 kPa (288.16 K) and 268.8 ± 12 kPa (298.13 K).

Take `C=C` [ethene]: the “vapor or sublimation pressure” value reads like this: (268.13 K) 3648.5 ± 22 kPa; (278.36 K) 4611.2 ± 26 kPa.
